The values below come from patent publication US10407445B2, “Hepatitis C virus inhibitors” (ENANTA PHARMACEUTICALS, INC., priority 2013, dated 2019).

Format in all cases: cell-based
Assay [1] deals with HCV genotype 1a replicon, NS5A Y93H. Description: Transient replication assay, GT1a NS5A Y93H. The following applies: Hepatitis C virus.
For assay [2], the system named is HCV genotype 1a replicon, NS5A L31M. Nature of the assay: Transient replication assay, GT1a NS5A L31M. The following applies: Hepatitis C virus.
In assay [3] the test system is GT2a-7a-QC69 replicon. Description: Stable replicon assay, comparison to daclatasvir, GT2a-7a-QC69. The settings on record: Hepatitis C virus. The source says:
The plasmid pSG-hRlucNeo-JFH1 was generated from pSG-Neo-JFH1 (Kato et al. 2003, Gastroentrology 125:1808-1817). A fragment containing the JFH-1 5′ NTR-hRluc-Neo gene and two unique restriction sites (AgeI and PmeI) was synthesized (Integrated DNA Technologies, Coralville, Iowa). The resulting plasmid was digested with AgeI and PmeI and the excised fragment (5′NTR-hRluc-Neo) was ligated into pSG-Neo-JFH1 digested with the same enzymes to generate pSG-hRlucNeo-JFH1. To allow expression of heterologous NS5A sequences, an NS5A shuttle vector was generated from pSG-Neo-JFH1, in which the entire coding sequence of NS5A plus the first eight codons of NS5B were replaced with an AfeI restriction site. This was done by Infusion cloning (Clontech, Mountain View, Calif.) from two PCR products that were generated using pSG-Neo-JFH1 as a template and the following primer pairs: […]
Stable HCV replicon cell lines were grown in complete media (Dulbecco's modified Eagle medium [DMEM], 2 mM L-glutamine, 0.1 mM essential amino acids, 1 mM sodium pyruvate, 10% fetal bovine serum) with the addition 500 μg/ml […] (G418). […] For stable and transient replicon assays, luciferase activity of compound-treated cells was measured relative to DMSO-treated cells after 72 h incubation using RENILLA-GLO™ Luciferase Assay (Promega). […]

Assay [4] concerns HCV genotype 1a replicon, NS5A Q30E. Description: Transient replication assay, GT1a NS5A Q30E. The settings on record: Hepatitis C virus.
For assay [5], the system named is wild type (wt) HCV genotype 1a replicon. Nature of the assay: Transient replication assay, HCV genotype 1a wild type (wt). The following applies: Hepatitis C virus; HCV genotype 1a replicon wt. A general note: A replicon is a self-replicating genome or part of one, used to study replication in cells.
The subject of assay [6] is HCV genotype 1a replicon, NS5A K24E Q30K. Nature of the assay: Transient replication assay, GT1a NS5A K24E Q30K. The following applies: Hepatitis C virus.

A word on the EC50: it is the concentration that produces a half-maximal response. As to `COC(=O)N[C@H](C(=O)N1C[C@]2(CCCOC2)C[C@H]1c1ncc(-c2ccc(-c3ccc4c(ccc5nc([C@@H]6C[C@@H]7CCC[C@@H]7N6C(=O)[C@@H](NC(=O)OC)C(C)C)[nH]c54)c3)cc2)[nH]1)C(C)C` [Compound 16], the 50% effective concentration (EC50) turned out to be 10 nM in assay [1]; 0.0106 nM in assay [2]; 0.02 nM in assay [3]; 0.74 nM in assay [4]; 0.0014 nM in assay [5]; 7.9 nM in assay [6].
As to `COC(=O)N[C@H](C(=O)N1CCC[C@H]1c1nc(-c2ccc(-c3ccc(-c4c[nH]c([C@@H]5CCCN5C(=O)[C@@H](NC(=O)OC)C(C)C)n4)cc3)cc2)c[nH]1)C(C)C` [Daclatasvir, reference compound], the concentration giving a half-maximal response (EC50) was 65 nM in assay [1]; 0.67 nM in assay [2]; 0.016 nM in assay [3]; 81.5 nM in assay [4]; 0.0083 nM in assay [5]; 20 nM in assay [6].
